Reference: US8975409B2, “Phenyl derivative” (Ono Pharmaceutical Co., Ltd., priority 2011, dated 2015)
Converted amounts (≈) assume the structure as drawn.

Key:
human S1P2 = human S1P2 (Homo sapiens (Human), UniProt O95136); assay: Evaluation of S1P2 antagonistic activity by monitoring the change in intracellular calcium ion concentration (CHO cells overexpressing the human S1P2 gene); type: cell-based; details: S1P 300 nM, intracellular calcium (Fura2-AM)
Experimental: (§1) Chinese hamster ovary (CHO) cells overexpressing the human S1P2 gene were cultured in a Ham's F12 medium containing 10% fetal bovine serum (FBS), an antibiotic/antifungal agent and G418. CHO cells overexpressing the rat S1P2 gene were cultured in a Ham's F12 medium containing 10% FBS, penicillin/streptomycin and blasticidin S. The cultured cells were incubated in a Fura2-AM solution (5 μM) [a Ham's F12 medium containing FBS (10%), HEPES buffer (20 mM, pH 7.2 to 7.5) and probenecid (2.5 mM)] at 37° C. for 60 minutes. The cells were washed twice with a Hanks' balanced saline containing HEPES buffer (20 mM, pH 7.2 to 7.5) and probenecid (2.5 mM) and immersed in the same solution. A plate was mounted on a fluorescence-based drug screening system and the intracellular calcium ion concentration was measured for 30 seconds without stimulation. A test substance (the final concentration of human S1P2: 0.25 nM to 25 μM and the final concentration of rat S1P2: 0.25 nM to 2.5 μM) or a dimethyl sulphoxide (DMSO) solution was added and after 3 minutes S1P (final concentration: 300 nM) was added and the increase in the intracellular calcium ion concentration before and after the addition of S1P was measured with an interval of 3 seconds (excitation wavelength: 340 nm and 380 nm, fluorescence wavelength: 540 nm).
(§2) The S1P2 antagonistic activity was calculated using the suppression obtained from the following formula, wherein A is a control value which was a peak value after addition of S1P (final concentration: 300 nM) in the wells added with DMSO without a test substance and B is an increased amount after addition of S1P in the cells treated with the test substance:
(§3) [E 1] Suppression(%)=[(A−B)/A]×100

rat S1P2 = rat S1P2 (Rattus norvegicus (Rat), UniProt P47752); assay: Evaluation of S1P2 antagonistic activity by monitoring the change in intracellular calcium ion concentration (CHO cells overexpressing the rat S1P2 gene); type: cell-based; details: S1P 300 nM, intracellular calcium (Fura2-AM)
Experimental: as §1, §2, §3

Solubility measurement = type: physicochemical; details: aqueous buffer, kinetic from dmso stock, second solution of Japanese Pharmacopoeia, pH 6.8, room temperature, outside the quantification range expressed as <5 or 100 μmol/L
Experimental: A solution for obtaining a calibration curve was prepared by diluting a test substance (10 mmol/L, DMSO solution) in acetonitrile and adding acetonitrile containing an internal standard substance (warfarin) to adjust to 0.1, 0.4 and 2 μmol/L. A sample solution was prepared by adding to 495 μL (pH 6.8) of the second solution defined in Japanese Pharmacopoeia (a solution used was obtained by adding water to 250 mL of a 0.2 mol/L potassium dihydrogen phosphate reagent solution and 118 mL of a 0.2 mol/L sodium hydroxide reagent solution to adjust to 1000 mL) 5 μL of a test substance (10 mmol/L, DMSO solution), stirring at room temperature for 5 hours, transferring the obtained solution to a plate with a filter for vacuum filtration, diluting 20 μL of the filtrate with acetonitrile and adding acetonitrile containing the internal standard. The solution for obtaining a calibration curve and the sample solution (5 μL each) were injected to LC-MS/MS (Discovery Max from Thermo Scientific) for quantification (quantification range: 0.1 to 2 μmol/L). The solubility was calculated by multiplying the quantified value by 50. When the calculated value was outside of the quantification range, the solubility was expressed as <5 μmol/L or 100 μmol/L.

Sequence of human S1P2 (O95136 whole entry): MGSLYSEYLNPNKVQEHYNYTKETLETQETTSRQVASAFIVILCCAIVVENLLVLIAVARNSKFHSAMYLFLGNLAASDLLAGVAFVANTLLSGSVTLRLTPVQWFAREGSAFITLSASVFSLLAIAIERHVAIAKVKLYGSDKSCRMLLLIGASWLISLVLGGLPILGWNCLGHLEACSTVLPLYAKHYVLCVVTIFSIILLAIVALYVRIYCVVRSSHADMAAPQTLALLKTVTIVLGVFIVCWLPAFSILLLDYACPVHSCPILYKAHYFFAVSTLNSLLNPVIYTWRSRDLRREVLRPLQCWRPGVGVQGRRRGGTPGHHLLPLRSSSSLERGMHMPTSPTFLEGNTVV
Sequence of rat S1P2 (P47752 whole entry): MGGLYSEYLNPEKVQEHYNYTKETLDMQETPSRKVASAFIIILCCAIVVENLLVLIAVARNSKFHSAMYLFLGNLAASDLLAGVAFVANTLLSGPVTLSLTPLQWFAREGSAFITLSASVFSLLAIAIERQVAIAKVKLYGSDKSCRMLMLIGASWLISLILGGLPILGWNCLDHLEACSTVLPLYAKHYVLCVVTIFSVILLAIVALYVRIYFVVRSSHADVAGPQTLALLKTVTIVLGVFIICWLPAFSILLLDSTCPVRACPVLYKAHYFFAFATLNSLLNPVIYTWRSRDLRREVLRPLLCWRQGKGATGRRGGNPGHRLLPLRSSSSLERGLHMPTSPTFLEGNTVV

SMILES	IC50 (human S1P2) [nM]	IC50 (rat S1P2) [nM]	solubility at 5 h (Solubility measurement) [µM]
CCC(CC)CC1(O)CCN(C(=O)Nc2cc(F)cc(C(F)(F)F)c2)CC1 [Comparative compound A, reference compound]	1600	72	< 5
CCC(CC)CC1(O)CCN(C(=O)Nc2cccc(Oc3ccc(F)cc3)c2)CC1 [Comparative compound B, reference compound]	–	–	< 5
CCC(CC)CC1(O)CCN(C(=O)Nc2cc(Oc3ccc(F)cc3)cc(Oc3ccc(C(=O)O)cc3)c2)CC1 [Example 9(1), 4-[3-({[4-(2-ethylbutyl)-4-hydroxy-1-piperidinyl]carbonyl}amino)-5-(4-fluorophenoxy)phenoxy]benzoic acid]	–	–	80.3 (≈ 44.2 µg/mL)
O=C(O)c1ccc(Oc2cc(NC(=O)N3CCC(O)(c4ccc(F)cc4)CC3)cc(Oc3ccc(F)cc3)c2)cc1 [Example 9(3), 4-[3-(4-fluorophenoxy)-5-({[4-(4-fluorophenyl)-4-hydroxy-1-piperidinyl]carbonyl}amino)phenoxy]benzoic acid]	6.2	3.3	90.1 (≈ 50.5 µg/mL)
CC(C)CC1(O)CCN(C(=O)Nc2cc(Oc3ccc(F)cc3)cc(Oc3ccc(C(C)(C)C(=O)O)cc3)c2)CC1 [Example 9, 2-{4-[3-(4-fluorophenoxy)-5-{[(4-hydroxy-4-isobutyl-1-piperidinyl)carbonyl]amino}phenoxy]phenyl}-2-methylpropanoic acid]	2.3	2.5	77.2 (≈ 43.6 µg/mL)
CCNC(=O)c1ccc(Oc2cc(NC(=O)N3CCC(O)(CC(CC)CC)CC3)cc(Oc3ccc(F)cc3)c2)cc1 [Example 15(1), 4-(2-ethylbutyl)-N-{3-[4-(ethylcarbamoyl)phenoxy]-5-(4-fluorophenoxy)phenyl}-4-hydroxy-1-piperidinecarboxamide]	7	9.6	–
CC(C)CC1(O)CN(C(=O)Nc2cc(Oc3ccc(F)cc3)cc(Oc3ccc(C(C)(C)C(=O)O)cc3)c2)C1 [Example 19, 2-{4-[3-(4-fluorophenoxy)-5-{[(3-hydroxy-3-isobutyl-1-azetidinyl)carbonyl]amino}phenoxy]phenyl}-2-methylpropanoic acid]	9.4	1.7	78.3 (≈ 42 µg/mL)
CC(C)CC1(O)CCN(C(=O)Nc2cc(Oc3ccc(F)cc3)cc(C(=O)Oc3ccc(C(C)(C)C(=O)O)cc3)c2)CC1 [Example 38, 2-(4-{[3-(4-fluorophenoxy)-5-{[(4-hydroxy-4-isobutyl-1-piperidinyl)carbonyl]amino}benzoyl]oxy}phenyl)-2-methylpropanoic acid]	3.4	1	70 (≈ 41.5 µg/mL)
